Some test systems named below: 786-0 renal; DU-145 prostate; HOP-62 NSCLC; HS 578T breast; KM20L2 colon; M19-MEL melanoma; MCF7 breast; MDA-MB-231 breast; MDA-MB-435; MDA-N; SNB-78 CNS; SR leukemia; XF 498 CNS.
Common to all, as to test: inhibition of tumour cell growth, NCI panel, 48 h

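Assay format: 96-well plates, 48-hour exposure. GI50 marks 50% less growth. Definition used: TGI = concentration required for complete inhibition of growth.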

Our source for the TGI and GI50 values is PubChem BioAssay (NCI).

Consider `C=C(CN(C)C)C(=O)c1cc(C)ccc1C`, for which the TGI is 11.4 µM in the assay with 786-0 renal; 22 µM in the assay with DU-145 prostate; 33.8 µM in the assay with HOP-62 NSCLC; more than 91.3 µM in the assay with HS 578T breast; 61.2 µM in the assay with KM20L2 colon; 19.6 µM in the assay with M19-MEL melanoma. The TGI with MCF7 breast worked out at 11.5 µM; in the assay with MDA-MB-231 breast, 36.2 µM; with MDA-MB-435, 22.1 µM; in the assay on MDA-N it was 21.4 µM; with SNB-78 CNS, 81.5 µM; with SR leukemia it was 6.63 µM. The TGI in the assay on XF 498 CNS turned out to be 33 µM.

As to `COc1ccc2c[n+](C)c3c4cc(OC)c(OC)cc4ccc3c2c1`, the TGI came to 15.5 µM in the assay with 786-0 renal; 37.4 µM in the assay with DU-145 prostate; 27.7 µM in the assay with HOP-62 NSCLC; 16.1 µM with HS 578T breast; 29.7 µM in the assay on KM20L2 colon; 25.6 µM with M19-MEL melanoma. Also, the TGI is more than 100 µM with MCF7 breast; 18.3 µM in the assay on MDA-MB-231 breast; 28.4 µM in the assay with MDA-MB-435; 33.5 µM with SNB-78 CNS; 14.4 µM in the assay on SR leukemia; 22.1 µM in the assay with XF 498 CNS.

In the case of `O=C(N1CCC(CN=c2cc3n(-c4ccc(Cl)cc4)c4ccccc4nc-3cc2Nc2ccc(Cl)cc2)CC1)N1CC1`, the GI50 was 1.3 µM in the assay on DU-145 prostate, 1.48 µM in the assay on HS 578T breast and 0.337 µM with SR leukemia. Also, the TGI in the assay with DU-145 prostate was 2.65 µM; in the assay with HS 578T breast, 3.54 µM; in the assay on SR leukemia it was 2.25 µM.

On to `COc1cccc(C2C(C(=O)O)=C(CO)Oc3cc4c(cc32)OCO4)c1` (stereo not given), for which the TGI in the assay with KM20L2 colon was more than 100 µM; in the assay on M19-MEL melanoma, more than 100 µM; in the assay on SNB-78 CNS, more than 100 µM; with XF 498 CNS, 91.2 µM.

Take `CC(=O)[O-].CC(=O)[O-].O=C(N/N=C/c1cc(Cl)cc(Cl)c1[OH2+])c1ccncc1.[Zn+2]`: the TGI in the assay with 786-0 renal, with HOP-62 NSCLC, with KM20L2 colon and in the assay with SR leukemia was more than 100 µM in each case.

On to `CCN(CC)CCC(=O)c1ccccc1`, for which the TGI in the assay with HOP-62 NSCLC was more than 100 µM; in the assay on KM20L2 colon it was 49.5 µM; in the assay with M19-MEL melanoma it was 56.1 µM; in the assay with SR leukemia, 35.3 µM.

In the case of `CCOC(=O)C1(C(=O)OCC)CSC1`, the TGI with DU-145 prostate, with HS 578T breast, with MCF7 breast, in the assay with MDA-MB-231 breast, in the assay with MDA-MB-435 and in the assay on MDA-N was more than 100 µM in each case. In addition, in the assay on SR leukemia, the TGI was more than 100 µM.

Regarding `CCSc1nc(N2CCCCC2)c2cn[nH]c2n1`, the GI50 with DU-145 prostate was 18.4 µM; in the assay with HS 578T breast it was 32.7 µM; in the assay on MCF7 breast, 22.8 µM; with MDA-MB-231 breast it was 11.6 µM; with MDA-MB-435, 28.8 µM. The TGI with DU-145 prostate was 75.5 µM; in the assay on HS 578T breast it was more than 100 µM; in the assay with MCF7 breast, 71.7 µM; in the assay on MDA-MB-231 breast, more than 100 µM; with MDA-MB-435, 75.6 µM.

Take `c1ccc(SC(Sc2ccccc2)c2ccc3c(c2)OCO3)cc1`: the TGI in the assay on 786-0 renal, in the assay with DU-145 prostate, in the assay on HOP-62 NSCLC, in the assay on HS 578T breast, in the assay on MDA-MB-231 breast and in the assay on MDA-MB-435 was more than 100 µM throughout. The TGI with MDA-N and in the assay on SR leukemia was more than 100 µM in each case.

As for `CCOc1ccc(N=Nc2ccc3oc(=O)c(/C(C)=N\NC(=O)CC(=O)Nc4ccc(Cl)cc4)cc3c2)cc1`, the TGI with HOP-62 NSCLC was 36.4 µM; with KM20L2 colon, more than 100 µM; with M19-MEL melanoma, more than 100 µM; with SNB-78 CNS it was more than 100 µM; in the assay with SR leukemia it was 25 µM; in the assay on XF 498 CNS, 4.31 µM.

`COC(=O)C1=COC2OC3/C(=C\c4ccc(O)c(OC)c4)C(=O)OC34C=CC1C24` (stereo not given): the TGI in the assay with HOP-62 NSCLC is 39.5 µM; with KM20L2 colon, 33.6 µM; with M19-MEL melanoma, 27.3 µM; in the assay on SNB-78 CNS, 39.4 µM; with SR leukemia, more than 100 µM; in the assay with XF 498 CNS, 18.4 µM.

Regarding `CC(=O)[O-].[Ni].c1ccc(/C(=N\Nc2ccccn2)c2ccccn2)cc1`, the TGI in the assay with 786-0 renal is 22.1 µM; with DU-145 prostate it was 25.1 µM; in the assay on HOP-62 NSCLC, 30.1 µM; in the assay on HS 578T breast, more than 100 µM; in the assay on KM20L2 colon, 22.1 µM; in the assay with M19-MEL melanoma it was 39.3 µM. For the same molecule, the TGI in the assay with MCF7 breast was 30.7 µM; with MDA-MB-231 breast, 22.8 µM; in the assay with MDA-MB-435, 22.4 µM; with MDA-N, 21.1 µM; with SNB-78 CNS, more than 100 µM. Moreover, the GI50 was 6.58 µM in the assay on MCF7 breast and 6.01 µM in the assay with MDA-MB-231 breast.

Regarding `O=C(O)c1cncc(C(=O)O)c1`, the TGI in the assay on 786-0 renal, with DU-145 prostate, in the assay on HOP-62 NSCLC, in the assay on HS 578T breast, in the assay with MCF7 breast and in the assay on MDA-MB-231 breast was more than 100 µM in each case. Moreover, the TGI in the assay with MDA-MB-435 and in the assay with MDA-N was more than 100 µM in each case.

For `COc1ccc2c(c1)O[C@H]1c3ccc(O)cc3OC[C@@H]21`, the TGI is more than 100 µM in the assay on HOP-62 NSCLC; more than 100 µM in the assay with KM20L2 colon; 46 µM in the assay with M19-MEL melanoma; more than 100 µM in the assay on SNB-78 CNS; 43.7 µM in the assay with SR leukemia; 46.4 µM in the assay on XF 498 CNS.

As to `O=c1[nH]cc(N(CCCl)CCCl)c(=O)[nH]1`, the TGI came out at 64.8 µM in the assay with 786-0 renal; 303 µM with DU-145 prostate; 81.7 µM in the assay with HOP-62 NSCLC; 301 µM in the assay with HS 578T breast; 196 µM in the assay with KM20L2 colon; 175 µM in the assay on M19-MEL melanoma. Moreover, the TGI amounted to 205 µM with MCF7 breast; 211 µM with MDA-MB-231 breast; 136 µM in the assay with MDA-MB-435; 153 µM with MDA-N; 369 µM in the assay on SNB-78 CNS; 55.1 µM in the assay on SR leukemia. In the assay on XF 498 CNS, the TGI was 89.7 µM.
